Measured values: ChEMBL document CHEMBL1201862, “PubChem BioAssay data set” (2004)
Calls of active or inactive are those of the source.

Key:
[1] = target: T1, Microphthalmia-associated transcription factor (Homo sapiens, UniProt O75030); assay: reducers of TRPM1 reporter luminescence, concentration series – cell-based, SK-MEL-5, cherry-picked, set 3, MITF inhibitor project, dose response (AID 493073); type: functional;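 further: SK-MEL-5 melanoma cells with luciferase driven by the MITF target TRPM1 promoter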
T1 sequence (O75030 whole entry): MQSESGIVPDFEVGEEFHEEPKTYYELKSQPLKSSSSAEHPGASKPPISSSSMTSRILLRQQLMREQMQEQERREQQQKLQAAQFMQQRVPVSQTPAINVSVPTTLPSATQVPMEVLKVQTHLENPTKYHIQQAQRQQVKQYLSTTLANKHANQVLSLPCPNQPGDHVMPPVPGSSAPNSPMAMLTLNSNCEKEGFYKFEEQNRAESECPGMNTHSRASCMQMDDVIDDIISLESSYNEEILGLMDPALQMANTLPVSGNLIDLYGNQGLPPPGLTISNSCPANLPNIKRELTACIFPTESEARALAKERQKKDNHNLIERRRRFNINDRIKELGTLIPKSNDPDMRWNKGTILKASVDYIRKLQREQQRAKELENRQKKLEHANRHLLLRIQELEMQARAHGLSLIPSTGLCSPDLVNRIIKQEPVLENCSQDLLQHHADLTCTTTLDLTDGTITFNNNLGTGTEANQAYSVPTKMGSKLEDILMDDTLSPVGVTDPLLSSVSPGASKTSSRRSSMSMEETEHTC

Cytochrome P450 1A2 = target: T2, Cytochrome P450 1A2 (Homo sapiens, UniProt P05177);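 further: PubChem cytochrome P450 panel assay, CYP1A2 panel member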
T2 sequence (P05177 whole entry): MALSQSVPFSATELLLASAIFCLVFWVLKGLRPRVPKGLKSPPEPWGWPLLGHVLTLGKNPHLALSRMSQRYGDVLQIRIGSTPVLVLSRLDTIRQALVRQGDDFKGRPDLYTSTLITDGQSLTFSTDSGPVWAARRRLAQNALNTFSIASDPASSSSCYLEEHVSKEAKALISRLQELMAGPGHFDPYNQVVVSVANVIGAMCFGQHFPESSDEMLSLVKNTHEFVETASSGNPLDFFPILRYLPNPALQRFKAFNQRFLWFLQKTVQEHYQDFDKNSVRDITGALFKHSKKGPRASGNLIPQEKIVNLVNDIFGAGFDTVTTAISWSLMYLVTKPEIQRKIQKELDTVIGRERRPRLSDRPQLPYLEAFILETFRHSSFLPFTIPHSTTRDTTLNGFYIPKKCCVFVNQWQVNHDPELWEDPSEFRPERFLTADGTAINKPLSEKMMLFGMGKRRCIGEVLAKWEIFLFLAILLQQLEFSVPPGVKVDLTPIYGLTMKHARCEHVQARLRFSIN

Cytochrome P450 3A4 = Cytochrome P450 3A4 (Homo sapiens, UniProt P08684);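 further: CYP3A4 tested as one member of a cytochrome P450 panel screen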
[2] = target: T3, Polyadenylate-binding protein 1 (Homo sapiens, UniProt P11940); assay: MLLE binding blockers, Cy5 peptide tracer – biochemical, fluorescence polarization, Cy5-PAM2 peptide, secondary, miRNA deadenylation inhibitor project, dose response (AID 602260); type: functional; settings: read-out: IC50_Mean
[3] = target: T3, Polyadenylate-binding protein 1; assay: MLLE domain peptide-binding blockers, IC50 – biochemical, fluorescence polarization, FITC-PAM2 peptide, dose response (AID 602259); type: functional; settings: read-out: IC50_Mean
Large T antigen = Large T antigen (Simian virus 40, UniProt P03070); type: functional, Betapolyomavirus macacae;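 further: Confirmatory-stage PubChem screen for compounds that inhibit SV40 T antigen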
[4] = target: T4, Rac GTPase-activating protein 1 (Homo sapiens, UniProt Q9H0H5); assay: blockers of MgcRacGAP-driven Rac1 GTP hydrolysis – biochemical, ADP Hunter fluorescence, primary and confirmatory, confirmation (AID 624330); type: functional
T4 sequence (Q9H0H5 whole entry): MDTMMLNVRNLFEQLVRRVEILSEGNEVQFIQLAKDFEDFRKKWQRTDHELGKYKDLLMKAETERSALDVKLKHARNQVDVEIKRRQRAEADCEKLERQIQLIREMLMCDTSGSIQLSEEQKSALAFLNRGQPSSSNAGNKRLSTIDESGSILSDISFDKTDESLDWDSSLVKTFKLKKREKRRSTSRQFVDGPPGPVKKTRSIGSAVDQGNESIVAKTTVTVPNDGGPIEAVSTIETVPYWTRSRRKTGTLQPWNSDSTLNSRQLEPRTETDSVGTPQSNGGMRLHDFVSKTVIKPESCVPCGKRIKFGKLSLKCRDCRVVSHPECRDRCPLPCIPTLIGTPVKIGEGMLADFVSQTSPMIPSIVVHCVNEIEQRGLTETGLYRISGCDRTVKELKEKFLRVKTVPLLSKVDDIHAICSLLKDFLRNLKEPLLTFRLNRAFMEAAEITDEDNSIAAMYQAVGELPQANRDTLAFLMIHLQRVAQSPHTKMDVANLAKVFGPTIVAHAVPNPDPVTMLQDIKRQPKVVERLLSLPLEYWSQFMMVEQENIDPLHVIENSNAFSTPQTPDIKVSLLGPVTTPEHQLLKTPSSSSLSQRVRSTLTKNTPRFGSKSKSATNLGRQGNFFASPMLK

[5] = target: FAD-linked sulfhydryl oxidase ALR (Homo sapiens, UniProt P55789); assay: ALR-catalysed DTT oxidation blockers – biochemical, H2O2 detection, luminescence, cherry-pick, dose response (AID 493248)
[6] = HEK-293T viability loss after treatment – luminescence, T-cell screen hits, cytotoxicity control for TCR NF-kB inhibitor project, dose response (AID 489026); type: functional, cell-based;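 further: cells exposed to compound about 14 hours before the viability readout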
INS1 = assay: INS-1E survival protection against cytokine death – cell-based, luminescence, retest, dose response (AID 449756); type: functional; settings: Rattus norvegicus;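 further: cell death triggered by IL-1 beta plus TNF-alpha plus IFN-gamma mixture; protective hits raise ATP signal compared with cytokine alone wells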
[7] = luciferase reporter signal suppression in cells – H4 neuroglioma cells, luminescence, dose response (AID 1990); type: functional, cell-based
[8] = Luminescence Cell-Based Dose Response HTS to Identify Inhibitors of 5'UTR Stem-Loop Driven Prion Protein mRNA Translation in H4 Neuroglioblastoma Cells. [Related pubchem assays: 1827 (Project Summary), 1813 (Primary HTS)]; type: functional
[9] = alpha-synuclein stem-loop luciferase translation blockers – H4 neuroglioma cells, luminescence, confirmation (AID 1988); type: functional, cell-based
[10] = target: T5, Heat shock factor protein 1 (Mus musculus, UniProt P38532); assay: decrease of HSF1-responsive luciferase luminescence – cell-based, NIH3T3, dose retest, confirmation (AID 2382); type: functional;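 further: NIH3T3 fibroblasts with HSF1-driven luciferase reporter stressed by proteasome inhibitor MG132; luminescence from HSF1-driven luciferase expression after 8 hours of MG132 stress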
T5 sequence (P38532 whole entry): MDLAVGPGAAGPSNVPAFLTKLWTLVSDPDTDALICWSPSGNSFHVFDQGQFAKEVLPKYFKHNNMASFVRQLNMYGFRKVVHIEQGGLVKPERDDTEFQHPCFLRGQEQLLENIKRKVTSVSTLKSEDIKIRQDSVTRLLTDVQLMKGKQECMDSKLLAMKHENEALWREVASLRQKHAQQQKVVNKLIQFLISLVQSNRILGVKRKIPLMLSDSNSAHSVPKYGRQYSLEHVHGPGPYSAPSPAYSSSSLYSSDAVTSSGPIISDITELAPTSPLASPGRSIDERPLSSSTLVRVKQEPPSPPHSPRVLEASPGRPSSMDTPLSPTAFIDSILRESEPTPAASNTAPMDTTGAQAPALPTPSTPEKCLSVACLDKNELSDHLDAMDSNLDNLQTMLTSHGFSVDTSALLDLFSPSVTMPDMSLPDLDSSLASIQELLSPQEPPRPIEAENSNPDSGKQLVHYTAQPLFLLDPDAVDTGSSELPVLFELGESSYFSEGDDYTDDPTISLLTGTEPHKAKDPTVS

[11] = NIH-3T3 fibroblast cytotoxicity, dose response, cytotoxicity control, cell-based, fluorescence, Alamar Blue, secondary assay (AID 2327); type: functional;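 further: NIH-3T3 mouse fibroblasts cultured with fluconazole at 8 µg/mL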
cells [12] = type: functional, cell-based
[13] = fluconazole-exposed Candida albicans growth modulators – fluorescence, retest, confirmation (AID 2467); type: functional, cell-based
cells [14] = type: functional, cell-based; remark: listed apart in the source
[15] = viability of uninfected HEp-2 cells – cell-based, HTS, cytotoxicity control for RSV inhibitor project, dose response (AID 2410); type: functional; settings: human respiratory syncytial virus
P388/ADR = assay: cells; type: functional; settings: Mus musculus
SN12K1 = assay: cells; type: functional; settings: Homo sapiens
Cytochrome P450 2C19 = Cytochrome P450 2C19 (Homo sapiens, UniProt P33261); assay: Cytochrome panel assay with activity outcomes. Panel member name: p450-cyp2c19 Compounds with AC50 equal or less than 10 uM are considered active; type: functional
[16] = blockers of HIV-1 envelope-mediated cell-cell fusion – cherry-pick, dose response (AID 652057); type: functional, cell-based
[17] = HIV-1 AD8 envelope cell-cell fusion blockers – cherry-pick, dose response (AID 652062); type: functional, cell-based;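 further: luciferase signal from cell-cell fusion driven by HIV-1 clade B AD8 Env; potency is for inhibitors of fusion seen as a drop in luminescence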
H9c2 = assay: cells; type: functional, cell-based; settings: Rattus norvegicus, H9c2, Myocardium

Chain of FAD-linked sulfhydryl oxidase ALR (P55789 whole entry): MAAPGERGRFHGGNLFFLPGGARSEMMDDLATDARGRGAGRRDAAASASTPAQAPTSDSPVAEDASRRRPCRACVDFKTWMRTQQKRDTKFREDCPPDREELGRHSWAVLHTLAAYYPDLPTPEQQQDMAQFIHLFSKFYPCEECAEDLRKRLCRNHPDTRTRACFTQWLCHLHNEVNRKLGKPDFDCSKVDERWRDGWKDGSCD
T3 sequence (P11940 whole entry, the tested form may be a part): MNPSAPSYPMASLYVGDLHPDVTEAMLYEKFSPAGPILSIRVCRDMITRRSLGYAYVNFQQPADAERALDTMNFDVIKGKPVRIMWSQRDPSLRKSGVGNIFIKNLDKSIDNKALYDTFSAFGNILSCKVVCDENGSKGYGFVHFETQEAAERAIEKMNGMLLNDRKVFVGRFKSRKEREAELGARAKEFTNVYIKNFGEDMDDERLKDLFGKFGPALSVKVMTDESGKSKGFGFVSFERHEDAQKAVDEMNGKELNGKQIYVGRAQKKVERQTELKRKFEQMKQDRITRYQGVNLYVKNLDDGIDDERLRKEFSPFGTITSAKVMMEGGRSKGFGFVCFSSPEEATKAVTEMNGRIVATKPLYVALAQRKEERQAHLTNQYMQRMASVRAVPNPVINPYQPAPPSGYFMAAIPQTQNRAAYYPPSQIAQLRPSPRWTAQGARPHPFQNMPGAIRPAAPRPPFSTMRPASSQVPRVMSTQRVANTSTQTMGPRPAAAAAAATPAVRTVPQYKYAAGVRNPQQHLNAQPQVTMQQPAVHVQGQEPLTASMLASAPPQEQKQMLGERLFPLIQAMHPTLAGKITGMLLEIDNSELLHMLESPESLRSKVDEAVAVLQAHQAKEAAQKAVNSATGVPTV
Chain of Large T antigen (P03070 whole entry): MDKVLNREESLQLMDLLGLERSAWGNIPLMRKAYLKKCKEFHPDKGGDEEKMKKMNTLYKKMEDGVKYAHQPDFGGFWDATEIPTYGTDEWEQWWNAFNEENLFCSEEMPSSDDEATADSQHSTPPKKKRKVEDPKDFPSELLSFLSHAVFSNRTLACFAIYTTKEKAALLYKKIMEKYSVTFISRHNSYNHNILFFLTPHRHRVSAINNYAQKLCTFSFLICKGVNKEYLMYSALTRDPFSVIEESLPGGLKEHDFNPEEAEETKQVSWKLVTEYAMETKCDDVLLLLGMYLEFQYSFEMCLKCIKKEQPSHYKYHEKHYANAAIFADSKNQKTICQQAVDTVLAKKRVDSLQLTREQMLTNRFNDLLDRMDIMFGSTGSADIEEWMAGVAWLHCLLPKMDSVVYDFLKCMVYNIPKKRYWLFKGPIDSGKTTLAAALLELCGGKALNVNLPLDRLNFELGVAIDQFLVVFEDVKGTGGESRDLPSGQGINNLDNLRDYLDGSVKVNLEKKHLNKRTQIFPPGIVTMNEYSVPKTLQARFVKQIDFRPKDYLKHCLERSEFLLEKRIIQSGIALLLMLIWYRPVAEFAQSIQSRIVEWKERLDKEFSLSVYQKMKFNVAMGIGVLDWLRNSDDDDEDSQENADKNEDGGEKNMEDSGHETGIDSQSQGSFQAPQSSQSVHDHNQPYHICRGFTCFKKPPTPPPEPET
Chain of Cytochrome P450 3A4 (P08684 whole entry): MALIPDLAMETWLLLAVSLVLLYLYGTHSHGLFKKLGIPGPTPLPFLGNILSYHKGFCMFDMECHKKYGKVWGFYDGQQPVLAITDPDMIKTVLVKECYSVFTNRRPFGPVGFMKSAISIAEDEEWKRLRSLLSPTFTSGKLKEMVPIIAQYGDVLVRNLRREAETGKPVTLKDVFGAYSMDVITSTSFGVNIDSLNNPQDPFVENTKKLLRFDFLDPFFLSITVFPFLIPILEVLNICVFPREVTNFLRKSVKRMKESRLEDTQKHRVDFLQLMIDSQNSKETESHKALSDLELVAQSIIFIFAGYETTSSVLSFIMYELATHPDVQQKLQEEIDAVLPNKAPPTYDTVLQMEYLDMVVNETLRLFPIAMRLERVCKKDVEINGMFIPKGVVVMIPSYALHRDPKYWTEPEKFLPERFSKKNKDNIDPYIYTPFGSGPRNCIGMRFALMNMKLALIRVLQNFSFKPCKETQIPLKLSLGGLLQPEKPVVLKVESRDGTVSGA
Chain of Cytochrome P450 2C19 (P33261 whole entry, the tested form may be a part): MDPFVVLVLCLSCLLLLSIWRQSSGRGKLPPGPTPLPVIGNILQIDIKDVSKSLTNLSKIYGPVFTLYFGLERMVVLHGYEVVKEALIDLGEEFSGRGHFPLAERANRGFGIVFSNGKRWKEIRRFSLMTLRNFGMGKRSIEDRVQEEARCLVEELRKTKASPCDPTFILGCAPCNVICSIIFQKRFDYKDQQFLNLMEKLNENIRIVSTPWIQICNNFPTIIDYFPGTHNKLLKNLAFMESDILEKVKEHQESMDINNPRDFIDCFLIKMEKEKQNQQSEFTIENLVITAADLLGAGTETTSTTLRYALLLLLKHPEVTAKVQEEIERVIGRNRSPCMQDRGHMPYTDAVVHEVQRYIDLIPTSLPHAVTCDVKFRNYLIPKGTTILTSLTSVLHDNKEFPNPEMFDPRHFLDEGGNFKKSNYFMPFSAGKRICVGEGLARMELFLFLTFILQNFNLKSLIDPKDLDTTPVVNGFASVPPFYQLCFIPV

## Cc1ccc(NC(=O)C2CCN(S(=O)(=O)c3c(C)noc3/C=C/c3ccco3)CC2)nc1
[1]
  AC50: 5.56 µM (active)

## O=C(Nc1cccc(F)c1)N1CC2(CCN(C(=O)Oc3ccccc3)CC2)C1
Cytochrome P450 1A2
  AC50: 12.6 µM (inconclusive)
Cytochrome P450 3A4
  AC50: inconclusive

## c1ccc(COC2CCCN(Cc3nc(-c4cccs4)no3)C2)nc1 (stereo not drawn)
[2]
  IC50: > 66 µM (inactive)
[3]
  IC50: > 66 µM (inactive)

## O=C1C=C(Nc2ccc(O)cc2)CC(c2ccco2)C1 (stereo not drawn)
Large T antigen
  IC50: 9.14 µM (active)
[4]
  IC50: 19.6 µM (active)

## CN(C)Cc1ccccc1Sc1ccc(O)cc1O
[5]
  AC50: 1.78 µM (active)

## CN(C)c1ccc(NS(=O)(=O)c2cccc(Cl)c2)cc1
Large T antigen
  IC50: 28.7 µM (active)

## Cc1noc(C)c1COc1ccc(C(=O)NNC(=O)c2ccccc2F)cc1
[6]
  IC50: > 80 µM (inactive)

## O=C1CCC(C(=O)N2CCCC(Nc3ccc(F)cc3)C2)=NN1 (stereo not drawn)
[5]
  AC50: 24.8 µM (active)

## Cn1ncc2c(N3CCN(c4ccc(Cl)c(Cl)c4)CC3)ncnc21
[6]
  IC50: > 80 µM (inactive)
INS1
  AC50: 2.55 µM (active)

## COc1ccc(-n2ccnc(SCC(=O)NC3CCCC3)c2=O)cc1
[2]
  IC50: > 66 µM (inactive)
[3]
  IC50: > 66 µM (inactive)

## Cc1ccc(N2C(=O)CC(Sc3ccccc3C(=O)O)C2=O)c([N+](=O)[O-])c1 (stereo not drawn)
[2]
  IC50: > 66 µM (inactive)
[3]
  IC50: > 66 µM (inactive)

## CC(C)c1ccc(S(=O)(=O)Nc2ccc(O)c(Sc3nc[nH]n3)c2)cc1
[5]
  AC50: 1.49 µM (active)

## COc1ccc(NCC(=O)N/N=C/C2CCCCC2)cc1
[5]
  AC50: 4.57 µM (active)

## COc1ccc(Sc2nc(-c3ccccc3)ncc2OC)cc1
[7]
  EC50: 18.3 µM (active)
[8]
  EC50: > 120 µM (not active)
[9]
  EC50: 16 µM (active)

## CCC(CC)C(=O)c1c[nH]c(C(=O)NCCCN2CCOCC2)c1
Cytochrome P450 1A2
  AC50: 25.1 µM (inconclusive)
Cytochrome P450 3A4
  AC50: inconclusive

## CCN1CCN(/C=N/c2nc3c(s2)CCCC3)CC1
[8]
  EC50: 8.93 µM (active)
[10]
  EC50: < 0.16 µM (active)
[9]
  EC50: 7.71 µM (active)
[1]
  AC50: 6.42 µM (active)

## COc1cccc(-n2nc(-c3ccnn3-c3ccccc3)c(=O)n(C)c2=O)c1
[7]
  EC50: 25.3 µM (active)
[8]
  EC50: > 120 µM (not active)
[9]
  EC50: > 120 µM (not active)

## CSc1nsc(SCC(=O)NCc2ccccc2)n1
[2]
  IC50: > 66 µM (inactive)
[3]
  IC50: > 66 µM (inactive)

## COc1cccc(/C=N/NC(=O)c2nc(-c3ccccc3)cc(-c3ccccc3)n2)c1O
[11]
  EC50: > 150 µM (inactive)
Cells [12]
  EC50: 12.8 µM (active)
[13]
  EC50: 1.54 µM (active)
Cells [14]
  EC50: 86.6 µM (active)

## COc1ccc(C2=CC(c3ccc(F)cc3)n3nnnc3N2)cc1 (stereo not drawn)
[2]
  IC50: > 66 µM (inactive)
[3]
  IC50: > 66 µM (inactive)

## CN(C)C(=O)c1c(-c2ccccc2)oc2ccc(O)cc12
Large T antigen
  IC50: 46.6 µM (active)

## Cc1ccc(C)c(-c2nc3ccc(N)cc3[nH]2)c1
Large T antigen
  IC50: 83.7 µM (active)

## Nc1ncc(-c2ccccc2)c(-c2ccc(O)cc2O)n1
[5]
  AC50: 3.66 µM (active)

## CCO[C@H]1OC(C(=O)Nc2ccccc2)=C[C@@H](c2ccc(Br)cc2)[C@@H]1CCCO
[15]
  CC50: 17.6 µM (active)
[7]
  EC50: > 120 µM (not active)
[8]
  EC50: > 120 µM (not active)
[9]
  EC50: > 120 µM (not active)

## Cc1[nH]c(=O)[nH]c(=O)c1N(CCF)CCCl [FLUORODOPAN]
P388/ADR
  GI50: 330 µM (inactive)
SN12K1
  GI50: 249 µM (inactive)

## CCN1CCCC1CNC(=O)C(=O)Nc1ccc(OC)cc1 (stereo not drawn)
Cytochrome P450 2C19
  AC50: inconclusive
Cytochrome P450 3A4
  AC50: inconclusive

## COc1ccc(S(=O)(=O)N(C)C[C@@H]2Oc3ccc(NC(=O)Nc4ccc5c(c4)OCO5)cc3C(=O)N([C@H](C)CO)C[C@@H]2C)cc1
[16]
  AC50: 2.3 µM (active)
[17]
  AC50: 3.09 µM (active)

## COc1ccc(CCNC(=O)c2nnn(CC(=O)Nc3c(C)cc(C)cc3C)c2N)cc1OC
Cells [12]
  EC50: > 350 µM (not active)
Cells [14]
  EC50: > 350 µM (not active)

## COc1cc(/C=C(\C#N)c2nc3ccccc3n2C)cc(OC)c1O
Large T antigen
  IC50: 9.81 µM (active)

## CCc1ccc(C2C(=O)c3ccccc3C2=O)cc1
Cells [12]
  EC50: > 350 µM (not active)
Cells [14]
  EC50: 30.8 µM (active)

## CCCC(=O)Nc1nc2n(n1)C(c1ccccc1)CC(=O)N2 (stereo not drawn)
Cytochrome P450 3A4
  AC50: inconclusive

## COc1cccc(N2CCN(CC(=O)NC(C)c3ccccc3)CC2)c1 (stereo not drawn)
[5]
  AC50: 2.02 µM (active)

## COC(=O)c1cc2c(C)c(C)c3ccccn3c-2c1C(=O)OC
H9c2
  IC50: 47.9 µM (inactive)
[2]
  IC50: > 66 µM (inactive)
[3]
  IC50: > 66 µM (inactive)

## CCN(CCNC(=O)Cn1cc2c(n1)CCCC2)c1ccccc1
[5]
  AC50: 2.46 µM (active)
